Test results published in BindingDB's records for doi:10.7270/Q2G44NQ4 (Emory University, 2007).

These compounds were tested against Mothers against decapentaplegic homolog 3 (Homo sapiens, UniProt P84022) (assay: inhibitors of SMAD-driven TGF-beta signaling – dose response (AID 715)).
Chain of Mothers against decapentaplegic homolog 3 (P84022 whole entry): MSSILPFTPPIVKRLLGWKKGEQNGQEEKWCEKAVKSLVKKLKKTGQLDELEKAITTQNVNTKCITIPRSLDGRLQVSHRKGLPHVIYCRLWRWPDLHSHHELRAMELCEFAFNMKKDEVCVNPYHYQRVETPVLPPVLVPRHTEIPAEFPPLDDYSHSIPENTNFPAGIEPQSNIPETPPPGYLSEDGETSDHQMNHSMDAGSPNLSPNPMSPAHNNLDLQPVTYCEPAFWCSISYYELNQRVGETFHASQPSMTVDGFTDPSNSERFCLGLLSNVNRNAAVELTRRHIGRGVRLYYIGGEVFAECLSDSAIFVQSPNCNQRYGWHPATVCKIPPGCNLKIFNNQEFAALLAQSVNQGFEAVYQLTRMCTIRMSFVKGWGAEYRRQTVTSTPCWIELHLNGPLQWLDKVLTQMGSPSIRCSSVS

Compound	IC50
CC1(C)CC(=O)C(C2(O)C(=O)NC(=O)NC2=O)C(=O)C1 [5-(4,4-dimethyl-2-oxidanyl-6-oxidanylidene-cyclohexen-1-yl)-5-oxidanyl-1,3-diazinane-2,4,6-trione]	2.3 µM
Cc1ccc(-[n+]2c(O)csc2[C-](C(Cl)=C(Cl)Cl)[N+](=O)[O-])cc1 [(2E)-3-(4-methylphenyl)-2-[2,3,3-tris(chloranyl)-1-nitro-prop-2-enylidene]-1,3-thiazolidin-4-one]	27.7 µM
O=C1C=CC(CN=Nc2nccs2)C=C1[N+](=O)[O-] (centres undefined) [(4Z)-2-nitro-4-[(2-thiazolylhydrazo)methylidene]-1-cyclohexa-2,5-dienone]	30.9 µM
CCN(CC)P(=O)(NC(=O)C(Cl)(Cl)Cl)N(CC)CC [MLS000564159]	14.1 µM
